Measured values from patent EP2439195B1, “NAPHTHALENE CARBOXAMIDE DERIVATIVES AS INHIBITORS OF PROTEIN KINASE AND HISTONE DEACETYLASE, PREPARATION METHODS AND USES THEREOF” (Shenzhen Chipscreen Biosciences, Ltd., priority 2009, dated 2010).

How the values were obtained:
Format in all cases: in vivo
[1] = test system: human HCT-8 colon cancer; assay: Nude mice tumor transplanted from human HCT-8 colon cancer (Example 55); conditions: 20 days; for TGI (%): tumor growth inhibition
Experimental: Female nu/nu mice of 18∼20g were fed by normal diet for 3 days. Then the cultured HCT-8 human colon cancer cells were implanted into the armpit of 50 mice. […] One group was treated with vehicle. One group was treated with Sutent, the positive control drug. Two groups were treated with compound 33 at different concentrations. The other two groups were treated with compound 37 at different concentrations. Compound 33 was administered twice a day with an interval of 6 hours. For other groups, administration was performed once a day. Each group was dosed orally for 20 days. […] The tumor growth inhibition of each group was calculated using the following formula: {[(the average tumor weight of control group)-(the average tumor weight of test group)]/(the average tumor weight of control group)} × 100%. [formula] The experimental results are shown in Table 9 and Figure 5.

[2] = test system: human SSMC7721 liver cancer; assay: Nude mice tumor transplanted from human SSMC7721 liver cancer (Example 56); conditions: for TGI (%): tumor growth inhibition
Experimental: (§1) Female nu/nu mice of 18∼20g were fed by normal diet for 3 days. Then the cultured SSMC7721 human liver cancer cells were implanted into the armpit of 50 mice. […] Each group had 8 mice. One group was treated with vehicle. One group was treated with Sutent, the positive control drug. Two groups were treated with compound 33 at different concentrations. The other two groups were treated with compound 37 at different concentrations. Each group was dosed orally once a day for 30 days. […] The tumor growth inhibition of each group was calculated using the following formula: {[(the average tumor weight of control group)-(the average tumor weight of test group)]/(the average tumor weight of control group)} × 100%. [formula] The experimental results are shown in Table 10 and Figure 6. Table10

[3] = test system: human HCT-8 colon cancer; assay: Nude mice tumor transplanted from human HCT-8 colon cancer (Example 54); conditions: for TGI (%): tumor growth inhibition
Experimental: as §1, with “cultured HCT-8” for “cultured SSMC7721”, “human colon” for “human liver”, “compound 34” for “compound 37”, “for 20” for “for 30”, “Table 8” for “Table 10”, “Figure 4.” for “Figure 6. Table10”

[4] = test system: human HCT-8 colon cancer; assay: Nude mice tumor transplanted from human HCT-8 colon cancer (Example 52); conditions: for Tumor weight: killed after 20 doses; for TGI (%): tumor growth inhibition
Experimental: Female nu/nu mice of 18∼20g were fed by normal diet for 3 days. Then the cultured HCT-8 human colon cancer cells were implanted into the armpit of 50 mice. […] Each group had 8 mice. One group was treated with vehicle. One group was treated with Sutent, the positive control drug. […] Each group was dosed orally once a day for 24 days. Tumor volumes along with body weights were recorded twice per week. On the next day after 20 doses, the mice were killed, and tumors were weighed. The tumor growth inhibition of each group was calculated using the following formula: {[([…])} × 100%. [formula] The experimental results are shown in Table 6 and Figure 2.

[5] = test system: SSMC7721 human liver cancer cells; assay: Nude mice tumor transplanted from human SSMC7721 liver cancer (Example 53); conditions: for TGI (%): tumor growth inhibition
Experimental: Female nu/nu mice of 18∼20g were fed by normal diet for 3 days. Then the cultured SSMC7721 human liver cancer cells were implanted into the armpit of 50 mice. […] One group was treated with vehicle. One group was treated with Sutent, the positive control drug. […] Each group was dosed orally once a day for 24 days. […] The tumor growth inhibition of each group was calculated using the following formula: {[([…])} × 100%. [formula] The experimental results are shown in Table 7 and Figure 3.

[6] = test system: human A549 lung cancer; assay: Nude mice tumor transplanted from human A549 lung cancer (Example 51); conditions: for TGI (%): tumor growth inhibition
Experimental: Then the cultured A549 human lung cancer cells were implanted into the armpit of 50 mice. […] Each group had 8 mice. One group was treated with vehicle. One group was treated with Sutent, the positive control drug. […] Each group was dosed orally once a day for 24 days. Tumor volumes along with body weights were recorded twice per week. On the next day after 24 doses, the mice were killed, and tumors were weighed. The tumor growth inhibition of each group was calculated using the following formula: {[(the average tumor weight of control group)-(the average tumor weight of test group)]/(the average tumor weight of control group)}×100%.

[7] = 30x2 mg/kg orally twice a day with an interval of 6 hours
[8] = 60x2 mg/kg orally twice a day with an interval of 6 hours
[9] = 30 mg/kg orally once a day for 30 days
[10] = 60 mg/kg orally once a day for 30 days
[11] = 30 mg/kg orally once a day for 20 days
[12] = 60 mg/kg orally once a day for 20 days
[13] = 2.5 mg/kg orally once a day for 24 days
[14] = 5 mg/kg orally once a day for 24 days
[15] = 10 mg/kg orally once a day for 24 days
[16] = 20 mg/kg orally once a day for 24 days
[17] = 40 mg/kg orally once a day for 24 days

## COc1ccc2c(Oc3ccc4c(C(=O)NCc5ccc(C(=O)Nc6ccccc6N)cc5)cccc4c3)ccnc2c1 [Compound 33, N-(4-((2-aminophenyl)carbamoyl)benzyl)-6-(7-methoxyquinolin-4-yloxy)-1-naphthamide]
[1]; [7]
  Tumor weight: 0.73 ± 0.36 g
  Body weight (g) end: 22.6 ± 1.6 g
  Body weight (g) start: 21.1 ± 1.2 g
  TGI (%): 88.1%
[1]; [8]
  Tumor weight: 0.45 ± 0.05 g
  Body weight (g) end: 19.0 ± 1.8 g
  Body weight (g) start: 20.1 ± 0.9 g
  TGI (%): 92.6%
[2]; [9]
  Tumor weight: 1.63 ± 0.47 g
  Body weight (g) end: 24.0 ± 1.7 g
  Body weight (g) start: 20.8 ± 0.5 g
  TGI (%): 27.8%
[2]; [10]
  Tumor weight: 1.48 ± 0.89 g
  Body weight (g) end: 25.4 ± 2.8 g
  Body weight (g) start: 21.4 ± 1.3 g
  TGI (%): 34.4%
[3]; [11]
  Tumor weight: 2.31 ± 0.43 g
  Body weight (g) end: 21.1 ± 2.2 g
  Body weight (g) start: 19.0 ± 1.3 g
  TGI (%): 43.3%
[3]; [12]
  Tumor weight: 1.98 ± 0.61 g
  Body weight (g) end: 21.4 ± 1.5 g
  Body weight (g) start: 19.4 ± 0.8 g
  TGI (%): 51.5%

## COc1ccc2c(Oc3ccc4c(C(=O)Nc5ccccc5N)cccc4c3)ccnc2c1 [Compound 31, N-(2-aminophenyl)-6-(7-methoxyquinolin-4-yloxy)-1-naphthamide]
[4]; 2.5 mg/kg orally once a day
  Body weight (g) end: 24.5 ± 1.1 g
  Tumor weight: 2.18 ± 1.28 g
  Body weight (g) start: 20.3 ± 0.8 g
  TGI (%): 54.5%
[4]; 5 mg/kg orally once a day
  Body weight (g) end: 24.8 ± 1.5 g
  Tumor weight: 0.78 ± 0.25 g
  Body weight (g) start: 21.6 ± 1.4 g
  TGI (%): 83.8%
[4]; 10 mg/kg orally once a day
  Body weight (g) end: 23.7 ± 0.8 g
  Tumor weight: 0.46 ± 0.15 g
  Body weight (g) start: 20.7 ± 1.1 g
  TGI (%): 90.3%
[4]; 20 mg/kg orally once a day
  Body weight (g) end: 22.5 ± 1.6 g
  Tumor weight: 0.19 ± 0.06 g
  Body weight (g) start: 20.5 ± 1.3 g
  TGI (%): 96.1%
[5]; [13]
  Tumor weight: 1.63 ± 0.70 g
  Body weight (g) end: 23.2 ± 2.1 g
  Body weight (g) start: 20.1 ± 0.9 g
  TGI (%): 51.7%
[5]; [14]
  Tumor weight: 1.16 ± 0.55 g
  Body weight (g) end: 24.8 ± 1.5 g
  Body weight (g) start: 20.8 ± 1.2 g
  TGI (%): 65.4%
[5]; [15]
  Tumor weight: 0.70 ± 0.45 g
  Body weight (g) end: 23.6 ± 1.5 g
  Body weight (g) start: 20.4 ± 1.6 g
  TGI (%): 79.2%
[5]; [16]
  Tumor weight: 0.53 ± 0.28 g
  Body weight (g) end: 21.0 ± 2.2 g
  Body weight (g) start: 20.2 ± 1.7 g
  TGI (%): 84.4%
[6]; [14]
  Tumor weight: 2.20 ± 0.57 g
  Body weight (g) end: 24.6 ± 1.3 g
  Body weight (g) start: 21.1 ± 0.6 g
[6]; [15]
  Tumor weight: 2.13 ± 0.51 g
  Body weight (g) end: 25.1 ± 1.3 g
  Body weight (g) start: 19.9 ± 1.3 g
[6]; [16]
  Tumor weight: 1.50 ± 0.41 g
  Body weight (g) end: 24.2 ± 0.7 g
  Body weight (g) start: 20.6 ± 1.1 g
  TGI (%): 64.3%
[6]; [17]
  Tumor weight: 1.06 ± 0.54 g
  Body weight (g) end: 22.6 ± 2.4 g
  Body weight (g) start: 20.0 ± 0.9 g
  TGI (%): 74.8%
